This note sets out measurements from US20050148545A1, “Glucosamine organic acid adducts” (priority 2001, published 2005).

A short description of this series: Homogeneity of GOA: citric acid by HPLC in eight aliquots. The series is classed as physicochemical. The protocol:
Citric acid is determined quantitatively by dissolving a known quantity of glucosamine citrate in deionized water. The solution is filtered through a 0.22μ filter into a HPLC vial. The sample is analyzed by HPLC using a BioRad HPX-87H column (BioRad, City, State) and 0.01 N H2SO4 as the mobile phase.
A sample containing a blend comprising 20% by weight anhydrous citric acid and 80% glucosamine hydrochloride was blended by tumbling for five minutes. The blended sample was poured into a tray. Eight aliquots were collected from different areas of the tray. The aliquots were diluted in 0.01N H2SO4, and then analyzed for citric acid by the method described in Example 6. The peak areas were normalized by the aliquot weights, and then averaged. The relative standard deviation for the eight aliquots was 7.7%.
A sample of GOA from Example 2, which had been stored at room temperature in a flask for approximately eleven months, having 12.3% citric acid was analyzed similarly. Eight aliquots were taken from the sample. Citric acid was determined by HPLC as described above. The peak areas were normalized by the aliquot weights, and then averaged. The relative standard deviation for the eight aliquots was 1.9%.
The analytical precision measured from eight aliquots of pure citric acid was 1.8% relative.

For `O=C(O)CC(O)(CC(=O)O)C(=O)O` [citric acid], the “analytical precision measured from eight aliquots” value (pure citric acid, HPLC) came out at 1.8 % relative. For the compound `N[C@H]1C(O)O[C@H](CO)[C@@H](O)[C@@H]1O.O=C(O)CC(O)(CC(=O)O)C(=O)O` [GOA from Example 2, glucosamine citrate], the degree of homogeneity result (precision compared with pure citric acid) was “high degree of homogeneity”.
